Measurements as given in the supplement of paper PMC10702517.
± gives the standard deviation.

Key:
[1] = chemical recovery from spiked human plasma; higher = better extraction; conditions: pooled human plasma
[2] = chemical recovery by SPE of plasma after PDMS sampling; higher = better extraction; conditions: pooled human plasma, extraction method: HLB SPE of plasma after PES
[3] = extraction method: SPE only (HLB 96-well), PES comparison experiment
[4] = extraction method: solvent precipitation (ACN + hexane)
[5] = extraction method: PES+SPE (3 d PDMS equilibration then HLB SPE)
[6] = extraction method: SPE only (HLB 96-well)
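Wherever chemical recovery by SPE of plasma after PDMS sampling is given: over 400 spiked chemicals quantified by LC-HRMS or GC-HRMS via internal standard calibration, recovery relative to spike mix added to unspiked plasma extract to correct matrix effects.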

Compound | chemical recovery [1, 3] [%] | chemical recovery [1, 4] [%] | chemical recovery by SPE of plasma ([2]; equilibration time (d): 1) [%] | chemical recovery by SPE of plasma ([2]; equilibration time (d): 3) [%] | chemical recovery by SPE of plasma ([2]; equilibration time (d): 6) [%] | chemical recovery [1, 5] [%] | chemical recovery [1, 6] [%]
CCCCCCCCCCCCCC(=O)NCCC[N+](C)(C)CCCS(=O)(=O)[O-] [Amidosulfobetaine-14] | 36 ± 9.4 | 74.8 ± 5 | 25.7 ± 5.3 | 26.1 ± 6.5 | 25.2 ± 4.2 |  | 
COc1cc(OC)nc(NC(=O)NS(=O)(=O)N(C)S(C)(=O)=O)n1 [Amidosulfuron] | 49.1 ± 5.6 | 70.2 ± 3.1 | 46.5 ± 7.7 | 49.1 ± 5.5 | 45.9 ± 6.6 | 46.6 ± 16 | 41 ± 4.5
CC(C)N1C(=O)c2ccccc2NS1(=O)=O [Bentazone] | 63.8 ± 5.6 | 75.2 ± 2.8 | 54.8 ± 8.1 | 58 ± 4.1 | 54.7 ± 3.1 | 44.5 ± 3.6 | 41.7 ± 3.2
c1ccc2cc3c(ccc4ccccc43)cc2c1 [Benz(a)anthracene] |  | 20.2 ± 2.8 |  | 8.41 ± 7.3 | 4.31 ± 7.5 |  | 1.06 ± 0.29
Nc1ccc(-c2ccc(N)cc2)cc1 [Benzidine] | 5.89 ± 3 | 38.3 ± 7.4 | 6.25 ± 0.9 | 6.11 ± 1.1 | 3.81 ± 0.98 | 0.64 ± 0.073 | 13.2 ± 2
c1ccc2c(c1)cc1ccc3cccc4ccc2c1c34 [Benzo(a)pyrene] |  | 99.1 ± 12 | 1.26 ± 1.1 |  |  |  | 4.36 ± 4
c1ccc2c(c1)c1cccc3ccc4cccc2c4c31 [Benzo(e)pyrene] |  | 57.7 ± 6.1 | 1.45 ± 1.3 | 1.37 ± 1.2 | 1.06 ± 1.8 |  | 2.35 ± 0.68
COc1cc(O)c(C(=O)c2ccccc2)cc1S(=O)(=O)O [Benzophenone-4] | 44.4 ± 4.8 | 72.2 ± 2.3 | 41 ± 11 | 48.7 ± 3.4 | 43.3 ± 4.4 | 45.5 ± 3.2 | 43.3 ± 3.8
CCCCCCCCCCCC[N+](C)(C)Cc1ccccc1 [Benzyldimethyldodecylammonium] | 46.5 ± 13 |  | 39.1 ± 6.7 | 43.2 ± 10 |  |  | 
O=C(O)c1cc(Oc2ccc(Cl)cc2Cl)ccc1[N+](=O)[O-] [Bifenox free acid] | 36.6 ± 6.7 | 65.8 ± 3.1 |  | 40.7 ± 16 |  | 38.2 ± 3.9 | 30.6 ± 3.6
Oc1c(Br)cc(Cl)cc1Cc1cc(Cl)cc(Br)c1O [Bromochlorophen] | 32.3 ± 8 | 34.9 ± 2 | 34.8 ± 10 |  |  | 34.8 ± 6.3 | 28.9 ± 6
CCCCCOC(=O)Nc1nc(=O)n([C@@H]2O[C@H](C)[C@@H](O)[C@H]2O)cc1F [Capecitabine] | 47.5 ± 7.2 |  | 44.1 ± 5.1 | 48.6 ± 5.5 | 44.2 ± 1.7 |  | 
O=C(O)COCCN1CCN(C(c2ccccc2)c2ccc(Cl)cc2)CC1 (stereo unspecified) [Cetirizine] | 48.6 ± 6.5 |  | 47.2 ± 6.6 | 52.3 ± 5.3 | 47.7 ± 2.9 | 69.9 ± 7.9 | 50.9 ± 2.3
CC[C@H]1OC(=O)[C@H](C)[C@@H](O[C@H]2C[C@@](C)(OC)[C@@H](O)[C@H](C)O2)[C@H](C)[C@@H](O[C@@H]2O[C@H](C)C[C@H](N(C)C)[C@H]2O)[C@](C)(OC)C[C@@H](C)C(=O)[C@H](C)[C@@H](O)[C@]1(C)O [Clarithromycin] | 44.1 ± 6.5 | 69.1 ± 2.1 | 22 ± 3.3 | 24.4 ± 2.8 | 22.3 ± 2.2 | 30.2 ± 4.1 | 45.1 ± 2.3
CC(C)(Oc1ccc(Cl)cc1)C(=O)O [Clofibric acid] | 61 ± 5.4 | 66.6 ± 7.9 | 53.1 ± 9.5 | 58.7 ± 6.2 | 51.5 ± 4.8 | 44.8 ± 1.8 | 44.7 ± 2.7
CC[N+](CC)(CC(=O)Nc1c(C)cccc1C)Cc1ccccc1 [Denatonium] | 49.9 ± 3.3 | 71.9 ± 3.3 | 56.4 ± 6.3 | 57.1 ± 3.3 | 54.9 ± 6.9 | 50.8 ± 2.9 | 38.4 ± 3.9
Cc1cccc(C)c1NC(=O)CS(=O)(=O)O [Dimethachlor CGA369-873] | 45.2 ± 5 | 79.6 ± 8.1 |  | 23.6 ± 2.8 | 28.2 ± 8.7 | 42.4 ± 2.5 | 40.3 ± 3.8
COCC(C)N(C(=O)CS(=O)(=O)O)c1c(C)csc1C (stereo unspecified) [Dimethenamid ESA] | 49.6 ± 3.4 |  | 45.5 ± 8.5 | 51.4 ± 4.4 | 45.4 ± 4.1 |  | 
COCC(C)N(C(=O)C(=O)O)c1c(C)csc1C (stereo unspecified) [Dimethenamid OA] | 51.7 ± 4.2 |  | 52.2 ± 8.1 | 58.9 ± 3.8 | 51.8 ± 2.6 |  | 
COC(=O)c1cc(C(=O)OC)cc(S(=O)(=O)O)c1 [Dimethyl-5-sulfoisophthalate] | 52.4 ± 4.3 | 46.7 ± 3.3 | 49.8 ± 6.7 | 54.2 ± 3.9 | 49.3 ± 4 | 44.6 ± 2.1 | 45.3 ± 3
O=P(O)(Oc1ccccc1)Oc1ccccc1 [Diphenylphosphate] | 47 ± 7 |  | 46.4 ± 13 | 56 ± 6.6 | 49.8 ± 8.2 |  | 44.6 ± 4.8
O=c1[nH]c2ccccc2n1CCCN1CCC(n2c(=O)[nH]c3cc(Cl)ccc32)CC1 [Domperidone] | 44.6 ± 4.9 |  | 44.4 ± 5.1 | 46.3 ± 3.7 | 42.3 ± 4.4 |  | 
CCOC(=O)[C@H](CCc1ccccc1)N[C@@H](C)C(=O)N1CCC[C@H]1C(=O)O [Enalapril] | 37.8 ± 5.6 | 70.5 ± 3.8 | 43.2 ± 7.6 | 47 ± 2.3 | 44.9 ± 4.6 | 42.2 ± 3.9 | 36.2 ± 1.4
CC[C@H]1OC(=O)[C@H](C)[C@@H](O[C@H]2C[C@@](C)(OC)[C@@H](O)[C@H](C)O2)[C@H](C)[C@@H](O[C@@H]2O[C@H](C)C[C@H](N(C)C)[C@H]2O)[C@](C)(O)C[C@@H](C)C(=O)[C@H](C)[C@@H](O)[C@]1(C)O [Erythromycin] | 3.18 ± 1.2 | 66 ± 3.4 |  | 11.9 ± 6.8 | 6.49 ± 3.8 | 4.25 ± 0.61 | 10.9 ± 8.2
COc1cc([C@@H]2c3cc4c(cc3[C@@H](O[C@@H]3O[C@@H]5CO[C@@H](C)O[C@H]5[C@H](O)[C@H]3O)[C@H]3COC(=O)[C@H]23)OCO4)cc(OC)c1O [Etoposide] |  | 35.5 ± 10 | 36.8 ± 3.4 | 40.9 ± 6.5 | 38.4 ± 0.53 | 54.9 ± 4.7 | 
C[C@@H]1C[C@H]2[C@@H]3C[C@H](F)C4=CC(=O)C=C[C@]4(C)[C@@]3(F)[C@@H](O)C[C@]2(C)[C@@]1(O)C(=O)CO [Flumethasone] | 47.9 ± 6.4 |  | 46.8 ± 5.2 | 51.4 ± 1.9 | 44.3 ± 2.9 |  | 
NS(=O)(=O)c1cc(C(=O)O)c(NCc2ccco2)cc1Cl [Furosemide] | 50 ± 6.5 | 69.3 ± 6.1 | 55.5 ± 12 | 70.9 ± 4.3 | 66.2 ± 5.9 | 44.9 ± 5.1 | 48.4 ± 7.2
NCC1(CC(=O)O)CCCCC1 [Gabapentin] | 0.0969 ± 0.19 |  |  |  | 0.00483 ± 0.0084 |  | 14.7 ± 7.2
